This note sets out measurements from US20240376154A1, “BIS-INTERCALATING PEPTIDES, CONJUGATES AND METHODS OF USE” (ZYMEWORKS BC INC., priority 2023, published 2024).

Data set [1] can be described thus: Stability in female mouse plasma. Particulars: female, mouse, plasma, 37° C., 24 h. The class given is in vitro ADME. As to the method:
The stability of exemplary compounds of general Formula I in mouse plasma was evaluated as follows.
Compounds were incubated at 1 μM in duplicate in female mouse plasma, 250 μL final volume, at 37° C. for 24 h. Aliquots were sampled at 0, 15, 30, 60, 120, 240, 480 and 1440 min. Proteins were precipitated by addition of 5 volumes of cold methanol. After centrifugation 10000×g for 10 min, the residual concentration of compound in the supernatant was measured using an appropriate LC-MS/MS method. The measured concentrations were expressed as a function of time through a one-phase decay exponential regression calculated using GraphPad Prism software (GraphPad Software, Inc.) to generate the plasma half-life for each compound.

For data set [2], the system named is IGROV-1 (Ovarian Adenocarcinoma). The experiment in a line: Cell proliferation assay, IGROV-1. As to conditions: 5 nights. The data set is classed as cell-based. As to the method:
(§1) The ability of Compound 419 and Compound 424 to inhibit proliferation of tumour cells in vitro was measured by a cell proliferation assay using the following tumour cell lines: IGROV-1 (Ovarian Adenocarcinoma, NCI), JEG-3 (Placental Choriocarcinoma, AddexBio (C0030003)) and OVKATE (Ovarian Adenocarcinoma, Japanese Collection of Research Bioresources (JCRB) (JCRB1044)).
(§2) Cell lines were cultured as per vendor instructions prior to running the cell proliferation assay. Briefly, on the day prior to adding compound, cells (50 μL/well, 1000 cells/well) were added to sterile, tissue culture (TC)-treated, 384-well plates (ThermoFisher Scientific, Catalogue #164610) and incubated overnight at 37° C./5% CO2 to allow the cells to adhere to the plate surface. The next day, in a sterile, V-bottom, 96-well plate, compounds were titrated 1:3 in complete growth medium, creating a 10-point dose response titration with compounds at 3.5-times the desired final concentration. Control wells with no compound (growth medium only) were included for each compound titration in 96-well dilution plates. 20 uL from the 10-point dose response titration were added to the 384-well plate containing the seeded cells, in duplicate. Plates were incubated at 37° C./5% CO2 for 5 nights. After 5-night incubation, cell viability was quantified by the addition of 15 uL/well of CellTiter-Glo® (Promega, Catalogue #G7572) and incubation at room temperature for 30 minutes. After 30-minute incubation, luminescence was measured using a microplate luminometer (BioTek® Synergy™ H1 Microplate Reader). The resulting relative light units (RLU values) were converted to % cytotoxicity using the growth medium only control wells mentioned above:
(§3) Data was fit into 4-parameter logistic to curves using non-linear regression methods available with GraphPad Prism software (GraphPad Software, Inc.).

Data set [3] is described as follows: Lipophilicity by experimental HPLC retention time. The class given is physicochemical. As to conditions: HPLC retention time as measure of lipophilicity; C18, 10 to 90% CH3CN/H2O with 0.1% FA over 25 min. A digest of the protocol:
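Reversed-phase HPLC with diode array detection on a Kinetex EVO C18 150×4.6, 2.6 μm column. Gradient 10 to 90% CH3CN/H2O with 0.1% FA over 25 min; retention time serves as the lipophilicity measure.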

The subject of the next data set is herring sperm DNA. The experiment in a line: DNA melting temperature by differential scanning calorimetry (DSC). The data set is classed as binding. Particulars: DSC; herring sperm DNA; DNA melting temperature = 68° C. In a few lines:
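Herring sperm DNA at 1 mg/mL (1.4 mM base pair) in BPE buffer, pH 7.0, equilibrated with test article (10 mM DMSO stock) for >3 h, insolubles removed by centrifugation. Scanned 25 to 110° C. at 1° C./min; melting temperature taken from the DSC melting curve.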

In data set [4] the test system is tumour cells (at least 4 of a panel of ovarian, breast, lung, pancreatic, placenta, colon cell lines). The experiment in a line: In vitro cytotoxicity (cell proliferation, CellTiter-Glo), average over tumour cell line panel. The class given is cell-based. As to conditions: average pIC50 on all cell lines tested; 5 nights incubation; CellTiter-Glo. In a few lines:
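Each cell line seeded at ~1000 cells/well and left to adhere overnight, then given a 10-point 1:3 compound titration for 5 nights at 37° C, 5% CO2. Viability read by CellTiter-Glo luminescence; IC50 per line, reported as pIC50 averaged across at least 4 lines.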

Data set [5] concerns OVKATE (Ovarian Adenocarcinoma). As to the kind of experiment: Cell proliferation assay, OVKATE. The data set is classed as cell-based. Particulars: 5 nights. As to the method: as §1, §2, §3
Data set [6] relates to JEG-3 (Placental Choriocarcinoma). The experiment in a line: Cell proliferation assay, JEG-3. The class given is cell-based. As to conditions: 5 nights. Here is the method: as §1, §2, §3

In the case of `CC(C)[C@H]1C(=O)OC[C@@H](NC(=O)c2nc3ccccc3cc2O)C(=O)N2CCCC[C@H]2C(=O)NCC(=O)N(C)CC(=O)N(C)[C@@H](C(C)C)C(=O)OC[C@@H](NC(=O)c2nc3ccccc3cc2O)C(=O)N2CCCC[C@H]2C(=O)NCC(=O)N(C)CC(=O)N1C` [Sandramycin, N,N′-((7R,11S,19aS,26R,30S,38aS)-11,30-diisopropyl-12,15,31,34-tetramethyl-6,10,13,16,19,25,29,32,35,38-decaoxodotriacontahydro-2H,6H,10H,25H-dipyrido[2,1-b1:2′,1′-l][1,17]dioxa[4,7,10,13,20,23,26,29]octaazacyclodotriacontine-7,26-diyl)bis(3-hydroxyquinoline-2-carboxamide), reference compound], in data set [1], the half-life at 1 μM was 354 min. In addition, the figures for the EC50 in data set [2], in data set [5] and in data set [6] were 1.6 nM, 0.8 nM and 3.3 nM, respectively. The “HPLC” value in data set [3] was determined as 21.6 min. Further, the “DNA melt (° C.)” value in the data set on herring sperm DNA was 102 °C. For the same compound, the “pIC50 (average)” value in data set [4] was found to be 9.0.
